Assay results: patent US10660867B2, “Beta-hydroxyketones as topical active ingredients for the prevention or treatment of photodermatoses” (Merck Patent GmbH, priority 2015, dated 2020)

Key:
[1] = system: test subjects with known PLE syndrome; assay: in vivo comparative study, skin reactions on UVA irradiation of treated skin; parameters: key to skin reaction on UVA irradiation, treated skin: 0 denotes no reaction; ± denotes weak reaction; + denotes clear reaction; ++ denotes strong reaction; +++ denotes very strong reaction; conditions: for skin reaction on UVA irradiation, treated skin: 2.0% by wt. in O/W emulsion, 2 mg/cm^2 daily
Method: In the in vivo study described below, the following O/W emulsion is used:
A comparative study with positive control is carried out on 6 test subjects with known PLE syndrome. The study was carried out in Germany in April over a period of 5 days. The positive control was untreated, irradiated skin. The irradiation was carried out with 100% UVA light in a sub-erythemal dose, which was determined individually. The preparation was applied daily to half of the décolletage (2 mg/cm^2).
The measurements were carried out twice daily, 10 min. after application of the preparation and immediately after irradiation.
In the case of all test subjects, skin manifestations which have the presentation of polymorphic light eruption appeared on untreated skin. In case of 4 test subjects, no polymorphic light eruption was observed on treated skin. Only in the case of 2 test subjects was a weak reaction observed.

[2] = UV absorption spectrum; format: physicochemical
From the text: The absorption behaviour for the compound 3-(4-tert-butylphenyl)-3-hydroxy-1-(4-methoxy-phenyl)propan-1-one is depicted in FIG. 1 as representative.

[3] = photoconversion of compound A into the UVA filter avobenzone on irradiation; format: physicochemical
From the text: As representative of the compounds of the formula (I), the efficacy of 3-(4-tert-butylphenyl)-3-hydroxy-1-(4-methoxyphenyl)propan-1-one in vivo is confirmed in the experimental part, where the proportion of UVA filter formed by decomposition of 3-(4-tert-butylphenyl)-3-hydroxy-1-(4-methoxy-phenyl)propan-1-one on exposure to UV light under the selected conditions of the study is only 0.1% by weight.
Under the conditions of the in vivo study, conversion of compound A into the UVA filter avobenzone in an amount which could exert an influence on the skin appearances of the test subjects can be excluded.
This can be stated because if a 2% solution of compound A in Cosmacol® ELI (C12-13 alkyl lactate) is irradiated with UVA/UVB light (20/1) in a dose of 5 MED (corresponding to 250 kJ/m^2), 0.1% of avobenzone is formed by conversion.
Under the conditions of the in vivo experiment, a UVA dose of 20 J/cm^2 (corresponding to 200 kJ/m^2) is irradiated, i.e. even less than 0.1% of avobenzone will form by conversion under these conditions.

[4] = system: transcription factor NF-κB; assay: inhibition of activation of the transcription factor NF-κB
From the text: It is furthermore thought that the compounds of the formula (I), as described above or preferably described below, have an inflammation-inhibiting action. This property also supports the therapeutic and non-therapeutic treatment of photodermatosis. […] 1998, 95(6):729-31.

[5] = of 6 test subjects with known PLE syndrome, 5 days, UVA irradiation

- absorption in the UVA region ([2]; UVA, 320-400 nm): does not absorb in the UVA region
- absorption ([2]; wavelength 215.5 nm): 0.22
- absorption ([2]; wavelength 273 nm): 0.22
- avobenzone formed by conversion ([3]; 2% solution in Cosmacol ELI (C12-13 alkyl lactate), UVA/UVB light (20/1), dose 5 MED (250 kJ/m^2)): 0.1%
- avobenzone formed by conversion ([3]; conditions of the in vivo experiment, UVA dose 20 J/cm^2 (200 kJ/m^2)): less than 0.1%
- proportion of UVA filter formed by decomposition on exposure to UV light ([3]; under the selected conditions of the study): 0.1 % by weight
SMILES: COc1ccc(C(=O)CC(O)c2ccc(C(C)(C)C)cc2)cc1 (stereo not shown) [Compound A, 3-(4-tert-butylphenyl)-3-hydroxy-1-(4-methoxyphenyl)-propan-1-one]
- effect on manifestations of polymorphic light eruption on irradiation ([1]; 6 test subjects, treated vs untreated irradiated skin): suppresses or significantly reduces the manifestations of polymorphic light eruption
- test subjects with no polymorphic light eruption observed on treated skin [1, 5]: 4 test subjects
- test subjects with weak reaction on treated skin [1, 5]: 2 test subjects
- skin reaction on UVA irradiation, treated skin ([1]; test subject 1, day 1, after irradiation): 0
- skin reaction on UVA irradiation, treated skin ([1]; test subject 1, day 1, before irradiation): 0
- skin reaction on UVA irradiation, treated skin ([1]; test subject 1, day 2, after irradiation): 0
- skin reaction on UVA irradiation, treated skin ([1]; test subject 1, day 2, before irradiation): 0
- skin reaction on UVA irradiation, treated skin ([1]; test subject 1, day 3, after irradiation): 0
- skin reaction on UVA irradiation, treated skin ([1]; test subject 1, day 3, before irradiation): 0
- skin reaction on UVA irradiation, treated skin ([1]; test subject 1, day 4, after irradiation): ±
- skin reaction on UVA irradiation, treated skin ([1]; test subject 1, day 4, before irradiation): ±
- skin reaction on UVA irradiation, treated skin ([1]; test subject 1, day 5, after irradiation): ±
- skin reaction on UVA irradiation, treated skin ([1]; test subject 1, day 5, before irradiation): ±
- skin reaction on UVA irradiation, treated skin ([1]; test subject 2, day 1, after irradiation): 0
- skin reaction on UVA irradiation, treated skin ([1]; test subject 2, day 1, before irradiation): 0
- skin reaction on UVA irradiation, treated skin ([1]; test subject 2, day 2, after irradiation): 0
- skin reaction on UVA irradiation, treated skin ([1]; test subject 2, day 2, before irradiation): 0
- skin reaction on UVA irradiation, treated skin ([1]; test subject 2, day 3, after irradiation): 0
- skin reaction on UVA irradiation, treated skin ([1]; test subject 2, day 3, before irradiation): 0
- skin reaction on UVA irradiation, treated skin ([1]; test subject 2, day 4, after irradiation): 0
- skin reaction on UVA irradiation, treated skin ([1]; test subject 2, day 4, before irradiation): 0
- skin reaction on UVA irradiation, treated skin ([1]; test subject 2, day 5, after irradiation): 0
- skin reaction on UVA irradiation, treated skin ([1]; test subject 2, day 5, before irradiation): 0
- skin reaction on UVA irradiation, treated skin ([1]; test subject 3, day 1, after irradiation): 0
- skin reaction on UVA irradiation, treated skin ([1]; test subject 3, day 1, before irradiation): 0
- skin reaction on UVA irradiation, treated skin ([1]; test subject 3, day 2, after irradiation): 0
- skin reaction on UVA irradiation, treated skin ([1]; test subject 3, day 2, before irradiation): 0
- skin reaction on UVA irradiation, treated skin ([1]; test subject 3, day 3, after irradiation): 0
- skin reaction on UVA irradiation, treated skin ([1]; test subject 3, day 3, before irradiation): 0
- skin reaction on UVA irradiation, treated skin ([1]; test subject 3, day 4, after irradiation): 0
- skin reaction on UVA irradiation, treated skin ([1]; test subject 3, day 4, before irradiation): 0
- skin reaction on UVA irradiation, treated skin ([1]; test subject 3, day 5, after irradiation): 0
- skin reaction on UVA irradiation, treated skin ([1]; test subject 3, day 5, before irradiation): 0
- skin reaction on UVA irradiation, treated skin ([1]; test subject 4, day 1, after irradiation): 0
- skin reaction on UVA irradiation, treated skin ([1]; test subject 4, day 1, before irradiation): 0
- skin reaction on UVA irradiation, treated skin ([1]; test subject 4, day 2, after irradiation): 0
- skin reaction on UVA irradiation, treated skin ([1]; test subject 4, day 2, before irradiation): 0
- skin reaction on UVA irradiation, treated skin ([1]; test subject 4, day 3, after irradiation): 0
- skin reaction on UVA irradiation, treated skin ([1]; test subject 4, day 3, before irradiation): 0
- skin reaction on UVA irradiation, treated skin ([1]; test subject 4, day 4, after irradiation): 0
- skin reaction on UVA irradiation, treated skin ([1]; test subject 4, day 4, before irradiation): 0
- skin reaction on UVA irradiation, treated skin ([1]; test subject 4, day 5, after irradiation): 0
- skin reaction on UVA irradiation, treated skin ([1]; test subject 4, day 5, before irradiation): 0
- skin reaction on UVA irradiation, treated skin ([1]; test subject 5, day 1, after irradiation): 0
- skin reaction on UVA irradiation, treated skin ([1]; test subject 5, day 1, before irradiation): 0
- skin reaction on UVA irradiation, treated skin ([1]; test subject 5, day 2, after irradiation): 0
- skin reaction on UVA irradiation, treated skin ([1]; test subject 5, day 2, before irradiation): 0
- skin reaction on UVA irradiation, treated skin ([1]; test subject 5, day 3, after irradiation): 0
- skin reaction on UVA irradiation, treated skin ([1]; test subject 5, day 3, before irradiation): 0
- skin reaction on UVA irradiation, treated skin ([1]; test subject 5, day 4, after irradiation): 0
- skin reaction on UVA irradiation, treated skin ([1]; test subject 5, day 4, before irradiation): 0
- skin reaction on UVA irradiation, treated skin ([1]; test subject 5, day 5, after irradiation): 0
- skin reaction on UVA irradiation, treated skin ([1]; test subject 5, day 5, before irradiation): 0
- skin reaction on UVA irradiation, treated skin ([1]; test subject 6, day 1, after irradiation): 0
- skin reaction on UVA irradiation, treated skin ([1]; test subject 6, day 1, before irradiation): 0
- skin reaction on UVA irradiation, treated skin ([1]; test subject 6, day 2, after irradiation): 0
- skin reaction on UVA irradiation, treated skin ([1]; test subject 6, day 2, before irradiation): 0
- skin reaction on UVA irradiation, treated skin ([1]; test subject 6, day 3, after irradiation): ±
- skin reaction on UVA irradiation, treated skin ([1]; test subject 6, day 3, before irradiation): ±
- skin reaction on UVA irradiation, treated skin ([1]; test subject 6, day 4, after irradiation): ±
- skin reaction on UVA irradiation, treated skin ([1]; test subject 6, day 4, before irradiation): ±
- skin reaction on UVA irradiation, treated skin ([1]; test subject 6, day 5, after irradiation): ±
- skin reaction on UVA irradiation, treated skin ([1]; test subject 6, day 5, before irradiation): ±
- activation of the transcription factor NF-κB [4]: inhibits activation
